Measured values reported in patent US20090220469A1, “PEPTIDES AGAINST AUTOANTIBODIES ASSOCIATED WITH GLAUCOMA AND USE OF THESE PEPTIDES” (MAX-DELBRUECK-CENTRUM FUER MOLEKULARE MEDIZIN, priority 2006, published 2009).

System: agonistic autoantibodies against the β2 adrenergic receptor (immunoglobulin fraction of POAG patients)
Experiment: Neutralization of agonistic autoantibodies by synthetic peptides, beating rate of spontaneously beating neonatal rat cardiomyocytes
Format: cell-based
Settings: for recognition of epitopes by the antibodies: 5 overlapping peptides of loop II of the β2 adrenergic receptor, FIG. 6; for effect on the antibody-induced increase in the spontaneous beating rate: immunoglobulins of 5 patients with POAG preincubated with short, overlapping peptides of the second extracellular loop of the β2 receptor, neonatal rat cardiomyocytes; for blocking of the stimulating effect of the antibodies by extracellular loop peptides: immunoglobulins from 6 POAG patients preexposed to peptides of the first, second and third extracellular β2 receptor loops, 0.5 μg peptide in 50 μl
Method: Preparation of the immunoglobulin fraction. The immunoglobulin fraction was isolated from 1- to 2-ml serum samples by ammonium sulfate precipitation at a saturation of 40%. The precipitates were washed and dissolved in dialysis buffer (154 mmol/l NaCl, 10 mmol/l sodium phosphate; pH 7.2). The procedure of precipitating, washing, and dissolving was repeated twice.
Finally, the immunoglobulins were taken up in 1 ml PBS (pH 7.2) and dialyzed at 4° C. for 30 hours against 1 l of dialysis buffer. The buffer was changed five times during dialysis. For detection of autoantibodies, the immunoglobulin fractions were added at a dilution of 1:20 or 1:40 to the flasks.
After the dialysis, the IgG fractions feature a concentration of 10-15 mg/ml, a maximum of 10 μg/ml of which are specific receptor antibodies. 50 μl of this IgG solution are pre-incubated with the peptides with the following concentration of peptides: 5 μl of a buffered solution of 100 μg/ml per 50 μl IgG solution. This mixture is pre-incubated at room temperature for 30 minutes and subsequently filled into the cell culture vials, after the former nutrient solution has been removed by pipet. The amount of the medium is 2 ml. The final concentration therefore is of […] for the IgG and 0.5 μg for the peptides. If the molecular weight of the peptide (10 mer) is set with 1 KD and that of the IgG is set with 150 KD, there is an […].
For the neutralization experiments, synthetic peptides corresponding to the sequence of the three extracellular loops of the human β2 adrenegic receptor was added in excess (0.5 μg in 50 μl) to 50 μl of the immunoglobulin fraction. The mixtures were shaken and incubated at room temperature for 1 h. The 100-μl samples were then added to neonatal rat heart muscle cells cultured in 2 ml medium to a final dilution of 1:40. The beating rate was counted for 15 s, 60 min after the addition of the peptide/immunoglobulin mixture.
For identifying the autoantibody neutralizing epitopes synthetic overlapping peptides corresponding to the sequence of the second extracellular loop of the human β2 adrenoceptor was added to the immunoglobulins. After 1 h incubation at room temperature the samples were used as described above.

Row | Substance | recognition of epitopes by the antibodies | effect on the antibody-induced increase in the spontaneous beating rate | blocking of the stimulating effect of the antibodies by extracellular loop peptides | blocking of the stimulating effect of the antibodies by extracellular loop peptides (listed as peptides from the second extracellular loop)
1 | AINCYAN [Ala-Ile-Asn-Cys-Tyr-Ala-Asn] | Antibodies recognize the epitopes | abolished the increase in the spontaneous beating rate in all 5 patients tested | – | –
2 | ANETCCD [Ala-Asn-Glu-Thr-Cys-Cys-Asp] | Antibodies recognize the epitopes | abolished the increase in the spontaneous beating rate in all 5 patients tested | – | –
3 | loop II peptide: synthetic peptide corresponding to the sequence of the second extracellular loop of the human β2 adrenergic receptor (HWYRATHQEAINCYANETCCDFFTNQ) | – | – | blocks the antibody activity to stimulate the rat cardiomyocytes | blocked the effect
